Assays:
Exo III = Exo III (Escherichia coli, UniProt P09030); conditions: 0.5 U EXO III
Experimental: 0.5 U EXO III was added into each reaction and incubated at 37° C. for 10 minutes to release fluorescence signal. Reaction mixtures were incubated at 50° C. for additional 30 min to ensure the complete release of 6-FAM conjugated unrepaired DNA substrates. EDTA was added into each reaction at a final concentration of 50 mM to terminate the reactions. Fluorescence readings were measured at excitation wavelength of 485±20 nm and emission wavelength of 528±20 nm on Synergy HTX Plate Reader. Data were exported for statistical analysis. The fluorescence reading of each well were adjusted by subtracting background reading signals from a control containing substrate […]. Normalized fluorescence data were averaged and plotted with corresponding statistical errors.

[1] = system: prostate cancer (LNCaP) cell extracts; test: BER capacity of prostate cancer cell extracts (fluorescence assay); assay type: biochemical, human; conditions: 25 μg cell extracts, inhibitor 200 μM, 37° C. 30 minutes; FIG. 7
Experimental: Cell pellets were re-suspended in lysis buffer that contained 10 mM Tris-HCl, pH 7.8, 200 mM KCl, 1 mM EDTA, 20% glycerol, 0.1% Nonidet P-40, 1 mM DTT with proteinase inhibitors (Roche Diagnostics Corporation, Indianapolis, Ind.). Cell suspension was subsequently subjected to rotation at 4° C. for 2 hours. After rotation, cell lysates were centrifuged at 14,000 rpm at 4° C. for 30 minutes to remove cell debris. The supernatant was recovered and further dialyzed into BER reaction buffer containing 50 mM Tris-HCl, pH 7.5, 50 mM KCl, 0.1 mM EDTA, 0.1 mg/ml bovine serum albumin, and 0.01% Nonidet P-40. Protein concentration of cell lysates was determined by Bradford assay. Cell lysates were aliquoted and stored at −80° C. for subsequent assay.
Substrates (25 nM) were pre-incubated with 25 nM purified APE1 at 37° C. for 15 minutes, and completely converted into ssDNA break intermediates for subsequent BER reactions. In vitro BER of a THF base lesion was performed by incubating APE1 precut substrate with 25 μg cell extracts in 10 μl-reaction mixtures that contained BER reaction buffer with 5 mM Mg^2+, 50 μM dNTP and 2 mM ATP in the absence or presence of inhibitors. Reaction mixtures were assembled on ice and incubated at 37° C. for 30 minutes.
10 μl-reaction mixtures were then transferred to […] black plates (Thermo Fisher Scientific, Pittsburgh, Pa.) and subjected to fluorescence reading. Each substrates/lysate/inhibitor combination was run in triplicate.
[…] plates were read at an excitation wavelength of 485±20 nm and an emission wavelength of 528±20 nm on a Synergy HTX Plate Reader (Bio-Tek, Winooski, Vt.). Data were exported to Excel for statistical analysis.
The fluorescence reading of each well needs to be abstracted by the reading from the well with 10 μl-BER reaction buffer alone before further data analysis. Normalized fluorescence data were averaged and plotted as “Average±Standard Deviation.” […]

Sequence of Exo III (P09030 whole entry): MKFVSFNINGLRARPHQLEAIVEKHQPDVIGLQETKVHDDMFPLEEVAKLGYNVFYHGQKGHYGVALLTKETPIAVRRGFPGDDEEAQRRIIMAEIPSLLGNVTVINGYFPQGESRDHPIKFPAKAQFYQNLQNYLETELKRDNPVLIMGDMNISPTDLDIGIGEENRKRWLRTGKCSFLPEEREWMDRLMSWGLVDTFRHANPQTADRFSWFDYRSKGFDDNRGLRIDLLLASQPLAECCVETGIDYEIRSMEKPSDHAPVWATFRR

| Compound | inhibitory effects on Exo III activity (Exo III) | effects on reducing BER capacity of prostate cancer (LNCaP) cell extracts [1] |
| --- | --- | --- |
| NC1=NC(=O)N(C2CC(O)C(COP(=O)(O)O)O2)C(I)C1 (stereo not drawn) [NSC-124854] | do not exhibit any inhibitory effects | not significant |
| Cc1cc(S(=O)(=O)Nc2n[nH]c(Nc3ccc(Cl)cc3)n2)c(S)cc1Cl [NSC-666715] | do not exhibit any inhibitory effects | not significant |
| Cc1cc(S(=O)(=O)Nc2n[nH]c(Nc3ccc4ccccc4c3)n2)c(S)cc1Cl [NSC-666719] | do not exhibit any inhibitory effects | not significant |
